This is an account of results in patent US20090274773A1, “ANTIPROLIFERATIVE COMBINATION COMPRISING CYC-682 AND A CYTOTOXIC AGENT” (Cyclacel Limited, priority 2005, published 2009).

What all share (type): cell-based, human
The test system of one assay is HT29. In words: MTT growth inhibition assay, single agent. The note with it: Homo sapiens, HT-29, 24 hours exposure, read-out: Antiproliferative effects IC50s (MTT assay). As for the experimental part:
(§1) All cell lines were obtained from the ATCC (Rockville, Md.). Cells were grown as monolayers in RPMI medium supplemented with 10% fetal calf serum (Invitrogen, Cergy-Pontoise, France), 2 mM glutamine, 100 units/ml penicillin and 100 μg/ml streptomycin. All cells were split twice a week using trypsin/EDTA (0.25% and 0.02%, respectively; Invitrogen, Cergy-Pontoise, France) and seeded at a concentration of 2.5×10^4 cells/ml. All cell lines were tested regularly for Mycoplasma contamination by PCR using a Stratagene kit (La Jolla, Calif.).
(§2) The MTT assay was carried out as described previously (Hansen M B, Nielsen S E, Berg K. Re-examination and further development of a precise and rapid dye method for measuring cell growth/cell kill. J Immunol Methods. 1989 May 12; 119(2):203-10). In brief, cells were seeded in 96-well tissue culture plates at a density of 2×10^3 cells/well. Cell viability was determined after a 120-hour incubation, by the calorimetric conversion of yellow, water-soluble tetrazolium MTT (3-[4,5-dimethylthiazol-2-yl]-2,5-diphenyltetrazolium bromide; Sigma, Saint-Quentin Fallavier, France), into purple, water-insoluble formazan. This reaction is catalyzed by mitochondrial dehydrogenases and is used to estimate the relative number of viable cells (Mosmann, T, Rapid calorimetric assay for cellular growth and survival: application to proliferation and cytotoxicity assays. J Immunol Methods. 1983 Dec. 16; 65 (1-2):55-63). Cells were incubated with 0.4 mg/ml MTT for 4 hours at 37° C. After incubation, the supernatant was discarded, the cell pellet was resuspended in 0.1 ml of DMSO and the absorbance was measured at 560 nm using a microplate reader (Dynatech, Michigan). Wells with untreated cells or with drug-containing medium without cells were used as positive and negative controls, respectively. Growth inhibition curves were plotted as a percentage of untreated control cells.
(§3) The cells were seeded at 2×10^3 cells/well in 96-well plates and treated 24 hours later with increasing concentrations of CYC682. After incubation times of 1 hour, 24 hours or 48 hours, the cells were washed and post-incubated in drug-free medium for 72 hours. Growth inhibition was then determined by the MTT assay.
(Tetrazolium assays rely on reduction of a dye to a coloured formazan, in cell work by metabolically active cells.)

The subject of another assay is MCF7. In words: MTT growth inhibition assay, single agent. Conditions: Homo sapiens, 24 hours exposure, read-out: Antiproliferative effects IC50s (MTT assay). The protocol:
as §1, §2, §3

Another assay concerns COLO205 cancer cell line. In words: CYC682 drug-combination study (MTT, Chou and Talalay combination index, isobolograms). As for the experimental part:
(§4) For simultaneous drug exposure, cells were seeded at 2×10^3 cells/well in 96-well plates and treated 24 hours later with increasing concentrations of CYC682 alone or with various concentrations of another drug corresponding to the IC20, IC40 or IC60 values. After approximately four doubling times (120 hours), the growth inhibitory effect was measured by the MTT assay.
(§5) Cells were seeded at 2×10^3 cells/well in 96-well plates and allowed to grow for 24 hour. Cells were then exposed to various concentrations of the first drug for 1 hour/24 hours/48 hours, the drug was removed, the cells were washed and the second drug was added. After additional drug exposure, the second drug was removed, the cells were washed and incubated in drug-free medium for 72 hours. Growth inhibition was then determined by the MTT assay.
(§6) Effects of drug combinations were evaluated using the Chou and Talalay method which is based on the median-effect principle (Chou T C, Talalay P. Quantitative analysis of dose-effect relationships: the combined effects of multiple drugs or enzyme inhibitors. Adv Enzyme Regul. 1984; 22:27-55). […] On the basis of the slope of the curve for each drug in a combination, it can be determined whether the drugs have mutually nonexclusive effects (e.g., independent or interactive modes of action).
(§7) The combination index (CI) is then determined by the equation:
(§8) CI=[(C)1/(Cx)1]+[(C)2/(Cx)2]+[α(C)1(C)2/(Cx)1(Cx)2],
(§9) where (Cx)1 is the concentration of drug 1 required to produce an x percent effect of that drug alone, and (C)1, the concentration of drug 1 required to produce the same x percent effect in combination with (C)2. If the mode of action of the drugs is mutually exclusive or nonexclusive, then α is 0 or 1, respectively. CI values will be calculated with this equation using different values of fa (i.e., for different degrees of cell growth inhibition). CI values of <1 indicate synergy, the value of 1 indicates additive effects, and values >1 indicate antagonism. Data were analyzed on an IBM-PC computer using concentration-effect analysis for microcomputer software (Biosoft, Cambridge, UK). For statistical analysis and graphs we will use Instat and Prism software (GraphPad, San Diego, USA). The dose-effect relationships for the drugs tested, alone or in paired combinations, were subjected to median-effect plot analysis to determine their relative potency (IC50), shape (m), and conformity (r) in each selected cell line. As stated above, the IC50 and m values were respectively used to calculate synergism and antagonism on the basis of the CI equation. Results were expressed as the mean±standard deviation of at least 3 experiments performed in duplicate. In each experiment, cells were exposed to the paired combinations for 48 hours as described above. Means and standard deviations were compared using Student's t-test (two-sided p value).
(§10) The effect of sequential and simultaneous exposure (FIG. 2) to CYC682 with oxaliplatin, doxorubicin, docetaxel and gemcitabine was studied in two sensitive colon cancer cell lines—COLO205 and HCT116 using combination indices that represent an affected fraction for the concentration of drugs corresponding to IC50 as previously described by Chou and Talalay.

The subject of another assay is HCT116 cancer cell line. Described as above. As for the experimental part:
as §4, §5, §6, §7, §8, §9, §10

The test system of a further assay is NSCLC cell line H1299. Description: CNDAC combinations (alamar blue, Calcusyn Combination Index). The note with it: for Interaction with CNDAC (in words), summary of Table 3: combination with CNDAC, regime not specified; for Combination Index at ED50, Concomitant / Combination Index at ED75, Concomitant / Combination Index at ED90, Concomitant: simultaneous treatment 72 h. As for the experimental part:
Experiments in the NSCLC cell lines H1299 or RERF-LC-MA were performed in 96-well plates, with cells seeded at a density of 3,000/well, in DMEM containing 10% (v/v) FCS. Stock solutions of all drugs were made up in dimethylsulfoxide (DMSO), with the exception of gemcitabine, which was dissolved in 0.9% (w/v) sterile saline solution.
For experimental assessment of potential synergistic interactions, the concomitant treatment regime involved simultaneous treatment of cells with CNDAC and the other agent under investigation for 72 h, alongside suitable controls of cells treated with the individual compounds alone for 72 hr. In the sequential treatment regimes, one drug was added to the cells 2 h after plating, and left for 24 h. Media was then aspirated, replaced with fresh media containing the second drug and incubated for 72 h. The two individual treatment controls for the sequential treatment regime involved substituting one of the drug treatments with drug-free media. […] Drug interactions were analysed using the Calcusyn software package (BioSoft, Cambridge, U.K.) described below.

[1] abbreviates: named agent in combination with CNDAC, H1299.
The mark [2] stands for this setting: named agent in combination with CNDAC, H1299, CNDAC 24 h then other agent 72 h.
Setting [3] is: named agent in combination with CNDAC, H1299, named agent 24 h then CNDAC 72 h.

Regarding `CC(=O)O[C@@]12CO[C@@H]1C[C@H](O)[C@@]1(C)C(=O)[C@H](O)C3=C(C)[C@@H](OC(=O)[C@H](O)[C@@H](NC(=O)OC(C)(C)C)c4ccccc4)C[C@@](O)([C@@H](OC(=O)c4ccccc4)[C@H]21)C3(C)C` [Docetaxel], the IC50 in the assay with HT29 came out at 10 ± 2 nM. The IC50 in the assay on MCF7 came to 10 ± 4 nM. Also, in the assay with COLO205 cancer cell line (COLO205, named agent given prior to CYC682), the “Interaction with CYC682 (isobologram)” value is “synergistic effect”. For the same molecule, the “Interaction with CYC682 (isobologram)” value in the assay with HCT116 cancer cell line (HCT116, named agent given prior to CYC682) was “synergistic effect”. In the assay with NSCLC cell line H1299, the “Interaction with CNDAC (in words), summary of Table 3” value is on record as “synergistic drug interactions”. Besides, in the assay with NSCLC cell line H1299 (setting [1]), the “Combination Index at ED50, Concomitant” value was 0.93; the “Combination Index at ED75, Concomitant” value was 1.13; the “Combination Index at ED90, Concomitant” value is on record as 2.01.
For `COc1cccc2c1C(=O)c1c(O)c3c(c(O)c1C2=O)C[C@@](O)(C(=O)CO)C[C@@H]3O[C@H]1C[C@H](N)[C@H](O)[C@H](C)O1` [Doxorubicin], the IC50 in the assay with HT29 was found to be 1070 ± 160 nM. Further, the IC50 in the assay with MCF7 stood at 700 ± 100 nM. The “Interaction with CYC682 (isobologram)” value in the assay on COLO205 cancer cell line (COLO205 (FIG. 5), sequential exposure, at high concentrations) is “synergistic”. Also, in the assay with HCT116 cancer cell line (HCT116 (FIG. 5), sequential exposure, at high concentrations), the “Interaction with CYC682 (isobologram)” value is on record as “synergistic”. The “Interaction with CNDAC at ED50 (in words)” value with NSCLC cell line H1299 (H1299, concomitant treatment) is given as “synergy”. The “Interaction with CNDAC at ED50 (in words)” value in the assay on NSCLC cell line H1299 (H1299, pre-treatment with named agent) is listed as “synergy”. For the same molecule, the “Interaction with CNDAC (in words), summary of Table 3” value in the assay on NSCLC cell line H1299 is reported as “synergistic drug interactions”. Further, in the assay on NSCLC cell line H1299 (setting [2]), the “Combination Index at ED75, CNDAC pretreatment” value is reported as 1.24 and the “Combination Index at ED90, CNDAC pretreatment” value is given as 2.23. Further, the “Combination Index at ED50, CNDAC pretreatment” value with NSCLC cell line H1299 (named agent in combination with CNDAC, H1299, CNDAC 24 h then other agent 72 h, C.I. <1 synergistic, 1 additive, >1 antagonistic) is on record as 0.95. Further, in the assay with NSCLC cell line H1299 (setting [3]), the “Combination Index at ED50, Other (named agent) pretreatment” value was 0.64; the “Combination Index at ED75, Other (named agent) pretreatment” value is recorded as 0.83; the “Combination Index at ED90, Other (named agent) pretreatment” value is reported as 1.63. Further, in the assay with NSCLC cell line H1299 (setting [1]), the “Combination Index at ED50, Concomitant” value is reported as 0.63; the “Combination Index at ED75, Concomitant” value was 1.14; the “Combination Index at ED90, Concomitant” value was 2.75.
